According to paper PMC3433420 (PLoS ONE, 2012):
Residues, ends and D or L forms follow the SMILES beside them.

Legend:
[1] = molecular target: T1, PLCG1-NC tandem SH2 domains (Homo sapiens, UniProt P19174); experiment: FP saturation binding assay; details: high-confidence ErbB interactions
T1 construct: the tandem protein was included in our analysis with all internal amino acids linking the domains; 6X His; thioredoxin; made in house; host or cells: E. coli BL21(DE3)pLysS
T1 sequence (P19174 550-756 limits assumed): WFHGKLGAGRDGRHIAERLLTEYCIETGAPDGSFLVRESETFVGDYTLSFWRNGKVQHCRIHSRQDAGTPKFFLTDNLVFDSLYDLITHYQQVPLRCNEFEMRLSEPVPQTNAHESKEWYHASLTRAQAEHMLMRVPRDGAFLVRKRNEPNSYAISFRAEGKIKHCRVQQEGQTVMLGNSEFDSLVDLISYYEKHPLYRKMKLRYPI

RASA1-N SH2 domain = molecular target: T2, RASA1-N SH2 domain (Homo sapiens, UniProt P20936); experiment: FP saturation binding assay
T2 sequence (P20936 181-272 limits assumed): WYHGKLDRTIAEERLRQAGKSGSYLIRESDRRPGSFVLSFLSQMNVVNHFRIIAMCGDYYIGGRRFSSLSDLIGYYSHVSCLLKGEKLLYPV

SH2 and PTB domains [2] = molecular target: T3, SH2 and PTB domains (Homo sapiens, UniProt O60880); experiment: In-house protein microarrays (with or without 5 mM DTT), protein named per line; format: binding; details: protein SH2D1A
T3 construct: thioredoxin; made in house; host or cells: BL21(DE3)pLysS E. coli
T3 sequence (O60880 1-128): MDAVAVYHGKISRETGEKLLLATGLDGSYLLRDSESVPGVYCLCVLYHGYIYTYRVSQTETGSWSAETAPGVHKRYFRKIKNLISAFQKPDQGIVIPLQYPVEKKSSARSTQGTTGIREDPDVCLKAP
Description: (§1) 300 pL of purified recombinant proteins and a thioredoxin tag control were spotted at a concentration of ∼40 µM in duplicate onto aldehyde-coated microscope slides (Erie Scientific Company, Portsmouth, NH) using a Nano-Plotter (NP) 2.1/E noncontact microarrayer (GeSiM, Munich, Germany). 16 identical microarrays per slide were printed in a 2×8 (column by row) format with distances of 9 mm between individual arrays; each array consisted of a 14×14 configuration of spots 400 µm apart. Following printing at a constant humidity level of 50%, slides were desiccated overnight and stored at −80°C. For peptide probing, array slides were transferred to 96-well microplates (TeleChem International, Inc., Sunnyvale, CA) and sandwiched with silicone gaskets. Prior to peptide addition, aldehyde sites were quenched with buffer B (20 mM HEPES, 100 mM KCl, 0.1% Tween-20, 5 mM DTT, pH 7.8) containing 1% bovine serum albumin (BSA) (w/v) for one hour at room temperature; moderate agitation was applied in a plate shaker (IKA, Germany) to displace glycerol from the surface area of protein sample spots. […] The arrays were subsequently washed once with 300 µL of buffer B and once with 300 µL of ddH2O. Residual water was removed by centrifugation; slides were stored under desiccation in the dark until analysis.
(§2) Microarray slides were scanned at a resolution of 10 µm using a GenePix 4000B microarray scanner and analyzed using GenePix Pro v6.0 software (Molecular Devices, Sunnyvale, CA). To independently visualize protein spots irrespective of peptide binding, samples were printed simultaneously with 400 nM of Cyanine-5 (Cy5) labeled bovine serum albumin (BSA). […] Following spot layout identification via Cy5 labeled BSA, the mean fluorescence intensity of rhodamine for duplicate protein spots was quantified and normalized by subtracting the corresponding mean fluorescence intensity of thioredoxin. Normalized fluorescence values were then imported into MATLAB and KDs determined as previously described.

SH2 and PTB domains [3] = molecular target: T4, SH2 and PTB domains (Homo sapiens, UniProt P07947); experiment: as above; format: binding; details: protein YES1
T4 construct: thioredoxin; made in house; host or cells: BL21(DE3)pLysS E. coli
Description: as §1, §2

[4] = Protein PLCG1-NC, FP saturation binding, mean over replicate hits
[5] = PM assay replicate # 39336, array fabrication # 39329
[6] = PM assay replicate # 39337, array fabrication # 39329
[7] = protein PLCG1-NC, FP, mean of replicate hits
[8] = PM assay replicate # 39307, array fabrication # 39286

T4 sequence (P07947 whole entry, the tested form may be a part): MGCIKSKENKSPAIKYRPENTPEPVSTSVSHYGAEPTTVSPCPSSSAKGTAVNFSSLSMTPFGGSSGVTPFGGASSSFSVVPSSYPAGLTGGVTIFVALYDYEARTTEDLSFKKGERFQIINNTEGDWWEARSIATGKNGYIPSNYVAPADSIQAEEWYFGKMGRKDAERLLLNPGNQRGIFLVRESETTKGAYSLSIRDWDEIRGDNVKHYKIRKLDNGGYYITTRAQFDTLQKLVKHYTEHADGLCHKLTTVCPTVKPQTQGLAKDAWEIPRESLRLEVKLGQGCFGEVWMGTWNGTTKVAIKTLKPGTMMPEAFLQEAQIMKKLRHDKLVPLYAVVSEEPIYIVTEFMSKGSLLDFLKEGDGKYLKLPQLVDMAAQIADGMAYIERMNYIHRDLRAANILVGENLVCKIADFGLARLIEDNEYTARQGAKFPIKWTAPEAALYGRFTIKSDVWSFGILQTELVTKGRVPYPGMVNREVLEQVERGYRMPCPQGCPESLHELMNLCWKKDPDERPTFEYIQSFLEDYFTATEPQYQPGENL

| SMILES | Kd [1, 4] [µM] | Kd (RASA1-N SH2 domain) [µM] | Kd [1, 7] [µM] | further results |
| --- | --- | --- | --- | --- |
| CC(C)C[C@H](NC(=O)[C@H](Cc1ccc(OP(=O)(O)O)cc1)NC(=O)[C@H](CCC(=O)O)NC(=O)[C@H](CCC(=O)O)NC(=O)[C@H](C)NC(=O)[C@@H](N)CC(=O)O)C(=O)N[C@H](C(=O)N1CCC[C@H]1C(=O)N[C@@H](CCC(N)=O)C(=O)N[C@@H](CCC(N)=O)C(=O)NCC(=O)N[C@@H](Cc1ccccc1)C(=O)N[C@@H](CC(=O)O)C(=O)O)C(C)C [ErbB2 1023 13-mer] (HELM PEPTIDE1{D.A.E.E.[O=C([C@H](Cc1ccc(OP(=O)(O)O)cc1)N[*:1])[*:2]].L.V.P.Q.Q.G.F.D}$$$$V2.0) | 1.3 | 5.49 | – | – |
| CC(C)[C@H](NC(=O)[C@H](CC(=O)O)NC(=O)[C@@H]1CCCN1C(=O)[C@H](CCC(N)=O)NC(=O)[C@H](CC(N)=O)NC(=O)[C@@H](NC(=O)[C@H](Cc1ccc(OP(=O)(O)O)cc1)NC(=O)[C@H](CCC(=O)O)NC(=O)[C@@H]1CCCN1C(=O)[C@H](CCC(N)=O)NC(=O)[C@@H]1CCCN1)C(C)C)C(=O)N[C@@H](CCCNC(=N)N)C(=O)N[C@@H](CC(=O)O)C(=O)O [ErbB2 1139 13-mer] (HELM PEPTIDE1{P.Q.P.E.[O=C([C@H](Cc1ccc(OP(=O)(O)O)cc1)N[*:1])[*:2]].V.N.Q.P.D.V.R.D}$$$$V2.0) | 3.38 | – | – | – |
| CC(C)C[C@H](NC(=O)[C@H](CC(N)=O)NC(=O)[C@@H](N)CC(=O)O)C(=O)N[C@@H](Cc1ccc(O)cc1)C(=O)N[C@@H](Cc1ccc(OP(=O)(O)O)cc1)C(=O)N[C@@H](Cc1c[nH]c2ccccc12)C(=O)N[C@@H](CC(=O)O)C(=O)N[C@@H](CCC(N)=O)C(=O)N[C@@H](CC(=O)O)C(=O)N1CCC[C@H]1C(=O)N1CCC[C@H]1C(=O)N[C@@H](CCC(=O)O)C(=O)N[C@@H](CC(=O)O)C(=O)O [ErbB2 1222 13-mer] (HELM PEPTIDE1{D.N.L.Y.[O=C([C@H](Cc1ccc(OP(=O)(O)O)cc1)N[*:1])[*:2]].W.D.Q.D.P.P.E.D}$$$$V2.0) | 1.28 | 4.29 | – | – |
| CC(C)C[C@H](NC(=O)[C@@H]1CCCN1)C(=O)N[C@@H](CCC(N)=O)C(=O)N[C@@H](CCCNC(=N)N)C(=O)N[C@@H](Cc1ccc(OP(=O)(O)O)cc1)C(=O)N[C@@H](CO)C(=O)N[C@@H](CCC(=O)O)C(=O)N[C@@H](CC(=O)O)C(=O)N1CCC[C@H]1C(=O)N[C@H](C(=O)N[C@H](C(=O)N1CCC[C@H]1C(=O)N[C@@H](CC(=O)O)C(=O)O)C(C)C)[C@@H](C)O [ErbB2 pY1112] (HELM PEPTIDE1{P.L.Q.R.[O=C([C@H](Cc1ccc(OP(=O)(O)O)cc1)N[*:1])[*:2]].S.E.D.P.T.V.P.D}$$$$V2.0) | – | – | – | Kd (SH2 and PTB domains [2]; PM assay replicate # 39331, array fabrication # 39329): 1.72 µM; Kd (SH2 and PTB domains [2]; [5]): 9.67 µM |
| CC(C)C[C@H](NC(=O)[C@@H]1CCCN1C(=O)[C@H](C)NC(=O)[C@@H](NC(=O)[C@H](Cc1ccc(OP(=O)(O)O)cc1)NC(=O)CNC(=O)[C@H](CC(=O)O)NC(=O)[C@@H](NC(=O)[C@@H](N)CCC(=O)O)[C@@H](C)O)C(C)C)C(=O)N[C@H](C(=O)N[C@@H](CS)C(=O)N[C@@H](CO)C(=O)N[C@@H](CC(=O)O)C(=O)O)[C@@H](C)O [ErbB2 pY1127] | – | – | – | Kd (SH2 and PTB domains [3]; [5]): 0.0053 µM; Kd (SH2 and PTB domains [3]; [6]): 0.0651 µM |
| CSCC[C@H](NC(=O)[C@H](Cc1ccc(OP(=O)(O)O)cc1)NC(=O)[C@H](CCC(=O)O)NC(=O)[C@H](Cc1ccc(O)cc1)NC(=O)CNC(=O)[C@@H](N)CC(C)C)C(=O)N[C@@H](CC(=O)O)C(=O)N[C@H](C(=O)NCC(=O)N[C@@H](CO)C(=O)N[C@@H](CC(=O)O)C(=O)N[C@@H](CC(C)C)C(=O)N[C@@H](CC(=O)O)C(=O)O)C(C)C [ErbB3 1224 13-mer] (HELM PEPTIDE1{L.G.Y.E.[O=C([C@H](Cc1ccc(OP(=O)(O)O)cc1)N[*:1])[*:2]].M.D.V.G.S.D.L.D}$$$$V2.0) | – | 1.24 | 4.22 | – |
| CSCC[C@H](NC(=O)[C@H](CCC(=O)O)NC(=O)[C@H](CCC(=O)O)NC(=O)[C@H](Cc1ccc(OP(=O)(O)O)cc1)NC(=O)CNC(=O)[C@H](CCC(N)=O)NC(=O)[C@H](CCC(=O)O)NC(=O)[C@@H](N)CO)C(=O)N[C@@H](CCCNC(=N)N)C(=O)N[C@@H](C)C(=O)N[C@@H](Cc1ccccc1)C(=O)N[C@@H](CCC(N)=O)C(=O)N[C@@H](CC(=O)O)C(=O)O [ErbB3 1289 13-mer] (HELM PEPTIDE1{S.E.Q.G.[O=C([C@H](Cc1ccc(OP(=O)(O)O)cc1)N[*:1])[*:2]].E.E.M.R.A.F.Q.D}$$$$V2.0) | – | 8.83 | 6.14 | – |
| CSCC[C@H](NC(=O)[C@H](Cc1ccc(OP(=O)(O)O)cc1)NC(=O)CNC(=O)[C@H](CCC(=O)O)NC(=O)[C@H](CCC(=O)O)NC(=O)[C@H](CC(=O)O)NC(=O)[C@H](CC(C)C)NC(=O)[C@H](CCC(=O)O)NC(=O)CNC(=O)[C@H](CCCNC(=N)N)NC(=O)[C@@H]1CCCN1)C(=O)N[C@H](C(=O)N1CCC[C@H]1C(=O)N[C@@H](CCSC)C(=O)N[C@@H](CCCNC(=N)N)C(=O)N[C@@H](CC(=O)O)C(=O)N[C@@H](CCCCN)C(=O)N[C@@H](CC(=O)O)C(=O)O)[C@@H](C)O [ErbB4 1150 18-mer] (HELM PEPTIDE1{P.R.G.E.L.D.E.E.G.[O=C([C@H](Cc1ccc(OP(=O)(O)O)cc1)N[*:1])[*:2]].M.T.P.M.R.D.K.D}$$$$V2.0) | – | 0.61 | 2.82 | – |
| CCN(CC)c1ccc2c(-c3ccc(C(=O)N[C@@H](CC(N)=O)C(=O)NCC(=O)N4CCC[C@H]4C(=O)N4CCC[C@H]4C(=O)N[C@@H](CCCCN)C(=O)N[C@@H](C)C(=O)N[C@@H](CCC(=O)O)C(=O)N[C@@H](CC(=O)O)C(=O)N[C@@H](CCC(=O)O)C(=O)N[C@@H](Cc4ccc(OP(=O)(O)O)cc4)C(=O)N[C@H](C(=O)N[C@@H](CC(N)=O)C(=O)N[C@@H](CCC(=O)O)C(=O)N4CCC[C@H]4C(=O)N[C@@H](CC(C)C)C(=O)N[C@@H](Cc4ccc(O)cc4)C(=O)N[C@@H](CC(C)C)C(=O)N[C@@H](CC(=O)O)C(=O)O)C(C)C)cc3C(=O)[O-])c3ccc(=[N+](CC)CC)cc-3oc2c1 [ErbB4 1202 (18-mer)] (HELM PEPTIDE1{[CCN(CC)c1ccc2c(-c3ccc(C(=O)[*:2])cc3C(=O)[O-])c3ccc(=[N+](CC)CC)cc-3oc2c1].N.G.P.P.K.A.E.D.E.[O=C([C@H](Cc1ccc(OP(=O)(O)O)cc1)N[*:1])[*:2]].V.N.E.P.L.Y.L.D}$$$$V2.0) | – | – | – | Kd (SH2 and PTB domains [2]; [8]): 30.90 µM; Kd (SH2 and PTB domains [3]; [8]): 0.35 µM; Kd (SH2 and PTB domains [3]; [6]): 1.44 µM; Kd (SH2 and PTB domains [3]; PM assay replicate # 39351, array fabrication # 39336): 1.61 µM; Kd (SH2 and PTB domains [3]; PM assay replicate # 39352, array fabrication # 39336): 0.42 µM |
| CC(C)C[C@H](NC(=O)[C@H](Cc1ccc(OP(=O)(O)O)cc1)NC(=O)[C@H](CC(C)C)NC(=O)[C@@H]1CCCN1C(=O)[C@H](CCC(=O)O)NC(=O)[C@H](CC(N)=O)NC(=O)[C@@H](NC(=O)[C@H](Cc1ccc(O)cc1)NC(=O)[C@H](CCC(=O)O)NC(=O)[C@H](CC(=O)O)NC(=O)[C@@H](N)CCC(=O)O)C(C)C)C(=O)N[C@@H](CC(N)=O)C(=O)N[C@H](C(=O)N[C@@H](Cc1ccccc1)C(=O)N[C@@H](C)C(=O)N[C@@H](CC(N)=O)C(=O)N[C@H](C(=O)N[C@@H](CC(=O)O)C(=O)O)[C@@H](C)O)[C@@H](C)O [ErbB4 1208 18-mer] (HELM PEPTIDE1{E.D.E.Y.V.N.E.P.L.[O=C([C@H](Cc1ccc(OP(=O)(O)O)cc1)N[*:1])[*:2]].L.N.T.F.A.N.T.D}$$$$V2.0) | – | 6.4 | – | Kd ([1]; protein PLCG1-NC, mean of replicate hits): 0.97 µM |
